Assays:
Assay in all cases: NCI SRB growth inhibition (single dose 10 µM / five-dose)
Format in all cases: cell-based, human
[1] = tested on: 786–0; details: for GI50: 786–0, Renal cancer, five-dose
In short: (§1)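 Growth inhibition is derived from seven absorbance readings per agent (Tz, C and five Ti). Where a parameter level is not reached or is exceeded, the value is given as greater or less than the highest or lowest concentration tested.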

[2] = tested on: A549/ATCC; details: for GI50: A549/ATCC, Non-small cell lung cancer, five-dose
In short: as §1

[3] = tested on: BT-549; details: for GI50: BT-549, Breast cancer, five-dose
In short: as §1

[4] = tested on: CAKI-1; details: for GI50: CAKI-1, Renal cancer, five-dose
In short: as §1

[5] = tested on: CCRF-CEM; details: for GI50: CCRF-CEM, Leukemia, five-dose
In short: as §1

[6] = tested on: EKVX; details: for GI50: EKVX, Non-small cell lung cancer, five-dose
In short: as §1

[7] = tested on: HS 578 T; details: for GI50: HS 578 T, Breast cancer, five-dose
In short: as §1

[8] = tested on: KM12; details: for GI50: KM12, Colon cancer, five-dose
In short: as §1

[9] = tested on: M14; details: for GI50: M14, Melanoma, five-dose
In short: as §1

[10] = tested on: MCF7; details: for GI50: MCF7, Breast cancer, five-dose
In short: as §1

[11] = tested on: MDA-MB-231/ATCC; details: for GI50: MDA-MB-231/ATCC, Breast cancer, five-dose
In short: as §1

[12] = tested on: MDA-MB-435; details: for GI50: MDA-MB-435, Melanoma, five-dose
In short: as §1

[13] = tested on: MDA-MB-468; details: for GI50: MDA-MB-468, Breast cancer, five-dose
In short: as §1

[14] = tested on: NCI-H460; details: for GI50: NCI-H460, Non-small cell lung cancer, five-dose
In short: as §1

[15] = tested on: OVCAR-8; details: for GI50: OVCAR-8, Ovarian cancer, five-dose
In short: as §1

[16] = tested on: RXF 393; details: for GI50: RXF 393, Renal cancer, five-dose
In short: as §1

[17] = tested on: SF-268; details: for GI50: SF-268, CNS cancer, five-dose
In short: as §1

[18] = tested on: SF-295; details: for GI50: SF-295, CNS cancer, five-dose
In short: as §1

[19] = tested on: SF-539; details: for GI50: SF-539, CNS cancer, five-dose
In short: as §1

[20] = tested on: SK-MEL-28; details: for GI50: SK-MEL-28, Melanoma, five-dose
In short: as §1

[21] = tested on: SK-OV-3; details: for GI50: SK-OV-3, Ovarian cancer, five-dose
In short: as §1

[22] = tested on: SN12C; details: SN12C, Renal cancer, five-dose
In short: as §1

[23] = tested on: SR; details: for GI50: SR, Leukemia, five-dose
In short: as §1

[24] = tested on: SW-620; details: for GI50: SW-620, Colon cancer, five-dose
In short: as §1

[25] = tested on: TK-10; details: for GI50: TK-10, Renal cancer, five-dose
In short: as §1

[26] = tested on: UACC-62; details: for GI50: UACC-62, Melanoma, five-dose
In short: as §1

For `COc1cc(C=NNC(=O)c2ccc3[nH]c(-c4ccc(Cl)cc4)nc3c2)cc(OC)c1OC` [8u, 2-(4-Chlorophenyl)-N'-(3,4,5-trimethoxybenzylidene)-1H-benzo[d]imidazole-5-carbohydrazide], the inhibition at 10 µM ([1]; Homo sapiens, 786–0 (Renal cancer), 10 µM, read-out: GI%) was > 100%, the GI50 ([1]; Homo sapiens) was 4.88 µM and the inhibition at 10 µM ([2]; Homo sapiens, A549/ATCC (Non-small cell lung cancer), 10 µM, read-out: GI%) was 70.8%. The GI50 ([2]; Homo sapiens) was 7.55 µM, the inhibition at 10 µM ([3]; Homo sapiens, BT-549 (Breast cancer), 10 µM, read-out: GI%) was > 100% and the GI50 ([3]; Homo sapiens) was 2.69 µM. The inhibition at 10 µM ([4]; Homo sapiens, CAKI-1 (Renal cancer), 10 µM, read-out: GI%) was 97.1%, the GI50 ([4]; Homo sapiens) was 11.2 µM and the inhibition at 10 µM ([5]; Homo sapiens, CCRF-CEM (Leukemia), 10 µM, read-out: GI%) was > 100%. It also gave a GI50 ([5]; Homo sapiens) of 6.27 µM, an inhibition at 10 µM ([6]; Homo sapiens, EKVX (Non-small cell lung cancer), 10 µM, read-out: GI%) of 90.8% and a GI50 ([6]; Homo sapiens) of 14.8 µM. The inhibition at 10 µM ([7]; Homo sapiens, HS 578 T (Breast cancer), 10 µM, read-out: GI%) was > 100%, the GI50 ([7]; Homo sapiens) was 2.58 µM and the inhibition at 10 µM ([8]; Homo sapiens, KM12 (Colon cancer), 10 µM, read-out: GI%) was > 100%. The GI50 ([8]; Homo sapiens) was 4.5 µM, the inhibition at 10 µM ([9]; Homo sapiens, M14 (Melanoma), 10 µM, read-out: GI%) was > 100% and the GI50 ([9]; Homo sapiens) was 3.77 µM. The inhibition at 10 µM ([10]; Homo sapiens, MCF7 (Breast cancer), 10 µM, read-out: GI%) was > 100%, the GI50 ([10]; Homo sapiens) was 0.66 µM and the inhibition at 10 µM ([11]; Homo sapiens, MDA-MB-231/ATCC (Breast cancer), 10 µM, read-out: GI%) was > 100%. The GI50 ([11]; Homo sapiens) was 3.39 µM, the inhibition at 10 µM ([12]; Homo sapiens, MDA-MB-435 (Melanoma), 10 µM, read-out: GI%) was > 100% and the GI50 ([12]; Homo sapiens) was 4.13 µM. For the same compound, the inhibition at 10 µM ([13]; Homo sapiens, MDA-MB-468 (Breast cancer), 10 µM, read-out: GI%) was > 100%, the GI50 ([13]; Homo sapiens) was 3.27 µM and the inhibition at 10 µM ([14]; Homo sapiens, NCI-H460 (Non-small cell lung cancer), 10 µM, read-out: GI%) was > 100%. The GI50 ([14]; Homo sapiens) was 3.19 µM, the inhibition at 10 µM ([15]; Homo sapiens, OVCAR-8 (Ovarian cancer), 10 µM, read-out: GI%) was > 100% and the GI50 ([15]; Homo sapiens) was 3.87 µM. For the same compound, the inhibition at 10 µM ([16]; Homo sapiens, RXF 393 (Renal cancer), 10 µM, read-out: GI%) was > 100%, the GI50 ([16]; Homo sapiens) was 2.22 µM and the inhibition at 10 µM ([17]; Homo sapiens, SF-268 (CNS cancer), 10 µM, read-out: GI%) was > 100%. For the same compound, the GI50 ([17]; Homo sapiens) was 4.4 µM, the inhibition at 10 µM ([18]; Homo sapiens, SF-295 (CNS cancer), 10 µM, read-out: GI%) was > 100% and the GI50 ([18]; Homo sapiens) was 4.18 µM. The inhibition at 10 µM ([19]; Homo sapiens, SF-539 (CNS cancer), 10 µM, read-out: GI%) was > 100%, the GI50 ([19]; Homo sapiens) was 2.02 µM and the inhibition at 10 µM ([20]; Homo sapiens, SK-MEL-28 (Melanoma), 10 µM, read-out: GI%) was > 100%. For the same compound, the GI50 ([20]; Homo sapiens) was 1.83 µM, the inhibition at 10 µM ([21]; Homo sapiens, SK-OV-3 (Ovarian cancer), 10 µM, read-out: GI%) was > 100% and the GI50 ([21]; Homo sapiens) was 15 µM. The GI50 ([22]; Homo sapiens) was 3.22 µM, the inhibition at 10 µM ([23]; Homo sapiens, SR (Leukemia), 10 µM, read-out: GI%) was > 100% and the GI50 ([23]; Homo sapiens) was 3.76 µM. For the same compound, the inhibition at 10 µM ([24]; Homo sapiens, SW-620 (Colon cancer), 10 µM, read-out: GI%) was > 100%, the GI50 ([24]; Homo sapiens) was 4.4 µM and the inhibition at 10 µM ([25]; Homo sapiens, TK-10 (Renal cancer), 10 µM, read-out: GI%) was 62.6%. The GI50 ([25]; Homo sapiens) was 28.8 µM, the inhibition at 10 µM ([26]; Homo sapiens, UACC-62 (Melanoma), 10 µM, read-out: GI%) was > 100% and the GI50 ([26]; Homo sapiens) was 1.24 µM.

With “N'-(2-Hydroxybenzylidene)-2-phenyl-1H-benzo[d]imidazole-5-carbohydrazide [8a]” the GI% ([1]; 786–0 (Renal cancer), 10 µM) was 91.76%, the GI50 [1] was 3.84 µM and the GI% ([2]; A549/ATCC (Non-small cell lung cancer), 10 µM) was “L (GI% > 100)”. For the same compound, the GI50 [2] was 3.41 µM, the GI% ([3]; BT-549 (Breast cancer), 10 µM) was “L (GI% > 100)” and the GI50 [3] was 1.8 µM. The GI% ([4]; CAKI-1 (Renal cancer), 10 µM) was “L (GI% > 100)”, the GI50 [4] was 3.48 µM and the GI% ([5]; CCRF-CEM (Leukemia), 10 µM) was 88.16%. For the same compound, the GI50 [5] was 0.26 µM, the GI% ([6]; EKVX (Non-small cell lung cancer), 10 µM) was 96.49% and the GI50 [6] was 1.85 µM. For the same compound, the GI% ([7]; HS 578 T (Breast cancer), 10 µM) was “L (GI% > 100)”, the GI50 [7] was 2.49 µM and the GI% ([8]; KM12 (Colon cancer), 10 µM) was 84.00%. The GI50 [8] was 3.72 µM, the GI% ([9]; M14 (Melanoma), 10 µM) was 81.80% and the GI50 [9] was 0.92 µM. For the same compound, the GI% ([10]; MCF7 (Breast cancer), 10 µM) was 96.94%, the GI50 [10] was 2.63 µM and the GI% ([11]; MDA-MB-231/ATCC (Breast cancer), 10 µM) was 88.16%. The GI50 [11] was 2.03 µM, the GI% ([12]; MDA-MB-435 (Melanoma), 10 µM) was 63.10% and the GI50 [12] was 5.77 µM. For the same compound, the GI% ([13]; MDA-MB-468 (Breast cancer), 10 µM) was 99.81%, the GI50 [13] was 3.45 µM and the GI% ([14]; NCI-H460 (Non-small cell lung cancer), 10 µM) was “L (GI% > 100)”. For the same compound, the GI50 [14] was 2.37 µM, the GI% ([15]; OVCAR-8 (Ovarian cancer), 10 µM) was “L (GI% > 100)” and the GI50 [15] was 2.49 µM. For the same compound, the GI% ([16]; RXF 393 (Renal cancer), 10 µM) was “L (GI% > 100)”, the GI50 [16] was 2.37 µM and the GI% ([17]; SF-268 (CNS cancer), 10 µM) was “L (GI% > 100)”. For the same compound, the GI50 [17] was 2.78 µM, the GI% ([18]; SF-295 (CNS cancer), 10 µM) was “L (GI% > 100)” and the GI50 [18] was 2.7 µM. The GI% ([19]; SF-539 (CNS cancer), 10 µM) was “L (GI% > 100)”, the GI50 [19] was 2.74 µM and the GI% ([20]; SK-MEL-28 (Melanoma), 10 µM) was 82.67%. For the same compound, the GI50 [20] was 4.62 µM, the GI% ([21]; SK-OV-3 (Ovarian cancer), 10 µM) was “L (GI% > 100)” and the GI50 [21] was 2.62 µM. For the same compound, the GI50 [22] was 4.67 µM, the GI% ([23]; SR (Leukemia), 10 µM) was 92.31% and the GI50 [23] was 1.68 µM. The GI% ([24]; SW-620 (Colon cancer), 10 µM) was 77.39%, the GI50 [24] was 3.48 µM and the GI% ([25]; TK-10 (Renal cancer), 10 µM) was 65.04%. It also gave a GI50 [25] of 4.53 µM, a GI% ([26]; UACC-62 (Melanoma), 10 µM) of 75.88% and a GI50 [26] of 3.66 µM.

From publication PMC10893631, “Receptor-based pharmacophore modeling, molecular docking, synthesis and biological evaluation of novel VEGFR-2, FGFR-1, and BRAF multi-kinase inhibitors” (BMC Chemistry, 2024)
